For eight compounds, logD and Ki results are on record in patent EP3581565A1, “PHENYL BENZYL ETHER DERIVATIVE AND PREPARATION METHOD AND APPLICATION THEREOF” (Beijing Zhibo Bio-Medical Technology Co., Ltd., priority 2018, dated 2019).

Tested on in one series: not listed separately
Description: logD of labeled ligands. The format is physicochemical.
As for `COc1ccc(OCc2ccc([125I])cc2)cc1` [[^125I]4], the logD entry is “[^125I]4 (logD = 4.00± 0.08)”.
Still for that read-out and setting: to `COc1ccc(OCc2ccc(OCC[18F])cc2)cc1` [[^18F]44a] belongs “[^18F]44a(logD = 3.05 ± 0.08)”; to `COc1ccc(COc2ccc(OCC[18F])cc2)cc1` [[^18F] 53a], “[^18F] 53a (logD= 3.65 ±0.04)”; to `FCCOc1ccc(OCc2ccc([125I])cc2)cc1` [[^125I]31a], “[^125I]31a(logD = 3.96± 0.22)”.
Still for that read-out and setting: as for `COc1ccc(COc2ccc([125I])cc2)cc1` [[^125I]24], the entry is “[^125I]24 (logD = 4.16± 0.29)”; as for `CN(C)c1ccc(OCc2ccc([125I])cc2)cc1` [[^125I]22], “[^125I]22(logD = 2.89± 0.09)”.

The next series deals with T1, Aβ1-42 aggregates (Homo sapiens, UniProt P05067).
T1 construct: Preparing receptor Aβ1-42 proteins according to the existing method
T1 sequence (P05067 672-713 limits assumed): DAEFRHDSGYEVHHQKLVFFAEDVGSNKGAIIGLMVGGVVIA
As to the kind of experiment: In-vitro competitive binding experiment (Ki determination) with Aβ1-42 aggregates. How it is done: 4, the compounds are separated after balancing, and the inhibition constant (Ki) is calculated by determining radioactivity.
• (1) Preparing 41 of PBS (0.2M) buffer solution with pH=7.4; • (2) Preparing radioligand [^125I]
Consider `Brc1ccc(OCc2ccc(I)cc2)cn1` [Compound 57, 2-bromo-5-((4-iodobenzyl)oxy) pyridine], for which the Ki was determined as 163 ± 23 nM.
Still for that read-out and setting: to `Clc1ccc(OCc2ccc(I)cc2)cn1` [Compound 55, 2-chloro-5-((4-iodobenzyl)oxy) pyridine] belongs 880 ± 72.4 nM.
